Data reported in patent US9989535B2, “Methods and reagents for analyzing protein-protein interfaces” (Warp Drive Bio, Inc., priority 2015, dated 2018).

Experiments:
FKBP12-PTP1BS187C = biological target: T1, FKBP12-PTP1BS187C (Homo sapiens, UniProt P18031+P62942, C121S/C32S/C92V/S187C); test: Crystal structure of FKBP12-C3SLF-PTP1BS187C ternary complex
T1 construct: residues 1-293 containing C32S/C92V/C121S/S187C; made in house
Description: Experimental Protocol: […] and FKBP12 were added to PTP1B[…] lite at 3:1 molar excess in 12.5 mM HEPES pH 7.4, 75 mM NaCl buffer, 4% DMSO, and incubated 36-72 hours at 4° C. Pure complex was isolated by size exclusion chromatography on a Superdex 75 column in 12.5 mM HEPES pH 7.4 and 75 mM NaCl. Purified complex (at 15 mg/ml) was subjected to crystallization screening at 20° C. using sitting drop vapor diffusion method. Crystals were grown in a well solution containing 0.2 M Magnesium Acetate, 20% w/v PEG 3350. For data collection, crystals were transferred to a solution containing mother liquor supplemented with 25% PEG400, and then frozen in liquid nitrogen. Diffraction datasets were collected at the Advanced Photon Source (APS) and processed with the XDS program. Molecular replacement solutions were obtained using the program PHASER in the CCP4 suite, using the published structure of FKBP12 (PDB-ID 2PPN) and PTP1B (PDB-ID 2NT7) as search models. Subsequent model building and refinement were performed according to standard protocols with the software packages CCP4 and COOT.

KRASGTP/G12C [1] = biological target: T2, KRASGTP/G12C (Homo sapiens, UniProt P01116+P62942, G12C); test: Cross-linking gel shift assay (12% SDS-PAGE), with or without FKBP12; assay type: binding; conditions: 60 μM KRAS, 180 μM FKBP12, 180 μM ligand, quenched by MMTS
T2 construct: KRASGTP/G12C (in-house, residues 1-169); made in house
Description: In parallel to mass spectrometry analysis, cross-linking reactions with C3- or C4-SLF were subjected to gel shift assay using 12% SDS-PAGE in the presence or absence of FKBP12 at the same experimental condition described above except that cross-linking reactions were set up at higher concentrations (60 μM KRAS, 180 μM FKBP12, and 180 μM C3- or C4-SLF) and they were quenched by MMTS to terminate the reaction.

KRASGTP/G12C [2] = biological target: T2, KRASGTP/G12C; test: Disulfide cross-linking efficiency by mass spectrometry, with or without FKBP12; assay type: binding; conditions: 2 μM KRAS, 10 μM ligand, 4 hours RT, MS
Description: Experimental protocol: In order to follow the kinetics of disulfide crosslinking reactions, Agilent 6230 TOF-LC/MS and Agilent 1260 HPLC instruments employing a AdvanceBio RP-mAb C4 column (2.1×100 mm, 3.5 μm) and equipped with an auto-sampler were used. HPLC grade acetonitrile and water (each containing 1.0 mM ammonium formate and 1% formic acid by volume) were used as mobile phase with the following ramp: 0.6 ml/min flow rate, water:acetonitrile=95:5 from 0.0 to 13.0 min ramping to water:acetonitrile=5:95 from 13.0 to 17.0 min. Total time=17.0 min.
All crosslinking reactions were performed in 1.5 mL amber colored glass vials equipped with 0.5 mL glass inserts. A water-soluble peptide (SEQ ID NO: 1: […]) was employed as an internal standard. Although the actual sequence of the internal standard is inconsequential, choice of amino acid residues were critical to avoid interference in the crosslinking assays. […] All reactions and standard solutions were prepared in HEPES (pH 7.4, 1.0 mM MgCl2) buffer.
Prior to every reaction, a standard curve was obtained for the individual components using a series of standard solutions (an example of standard curve analysis for FKBP12 is shown in Table 3 below). Using the data from standard curve, μmol of protein samples were plotted against the ratio of areas (sample:std) and a linear fit (y=mx+c) was employed to obtain the slope and intercept. The value of slope and intercept involved in these standard curves were accounted for during evaluation of the substrate and product concentration before and during the course of the reaction. For every substrate/product, an initial injection was followed up by a blank injection to verify presence of any residual protein/reagents. Based on this analysis the sequence of auto-sampler can be adjusted to included appropriate number of blank injections for removal of residual components, if any. The MS spectra were analyzed using Agilent MassHunter v B.07.0 software.
In a representative experiment to assess the presenter dependency of ligand cross-linking on the target protein, KRASGTP/G12C and either C3- or C4-SLF ligand were incubated in the presence or absence of FKBP12 at concentrations of 2 μM KRAS, 10 μM FKBP12, 10 μM C3- or C4-SLF for 4 hours at room temperature in 12.5 mM HEPES pH 7.4, 75 mM NaCl, 1 mM MgCl2, 3% DMSO. Analysis of the amount of KRAS undergoing disulfide cross-linking with the ligand using the method above.

MCL1S245C/FKBP52 = MCL1S245C/FKBP52 (Homo sapiens, UniProt Q02790+Q07820, C286S/S245C); test: Crystal structure of MCL1S245C/C3SLF/FKBP52 ternary complex; conditions: 3.0 Å
Description: Experimental Protocol: […] and FKBP52 were mixed with MCL1[…] lite at 3:1 molar excess in 12.5 mM HEPES pH 7.4, 75 mM NaCl buffer, 2% DMSO, and incubated 24-48 hours at 4° C. Pure complex was isolated by size exclusion chromatography on a Superdex 75 column in 12.5 mM HEPES pH 7.4 and 75 mM NaCl. Purified complex (at 15 mg/ml) was subjected to crystallization screening at 20° C. using sitting drop vapor diffusion method. Crystals were grown in a well solution containing 2.1 M Malic acid. For data collection, crystals were transferred to a solution containing mother liquor supplemented with 20% glycerol, and then flash-frozen in liquid nitrogen. 3.0 Å resolution diffraction dataset was measured at the Advanced Photon Source (APS) and processed with the XDS program. Molecular replacement solutions were obtained using the program PHASER in the CCP4 suite, using the published structure of FKBP52 (PDB-ID 1N1A) and […] (PDB-ID 3MK8) as search models. Subsequent model building and refinement were performed according to standard protocols with the software packages CCP4 and COOT.

PTP1BS187C lite/FKBP12 = biological target: T3, PTP1BS187C lite/FKBP12 (Homo sapiens, UniProt P18031+P62942, C121S/C32S/C92V/S187C); test: Ternary complex formation by SEC and SDS-PAGE; assay type: binding; conditions: SEC profile and SDS-PAGE of elution peaks
T3 construct: residues 1-293 containing C32S/C92V/C121S/S187C; made in house
Description: A 1:2:2 molar ratio of compound, presenter protein, and target protein are mixed together in 12.5 mM HEPES pH 7.4, 75 mM NaCl buffer containing 2% DMSO. The reaction is incubated at 37° C. for 30 min, followed by overnight incubation at room temperature. Pure complex is isolated by Size Exclusion Chromatography (SEC) purification. The reaction mixture is directly injected on a Superdex 75 column (CV 120 mL) pre-equilibrated with buffer containing 12.5 mM HEPES pH 7.4, 75 mM NaCl. Complex elutes at a higher molecular weight than unreacted target protein and presenter protein. To confirm presence of complex in the elution peak, samples are assessed by SDS-PAGE.
Experimental Protocol: A 1:3:3 molar ratio of C3-SLF, FKBP12, and PTP1BS187C lite are mixed together in 12.5 mM HEPES pH 7.4, 75 mM NaCl buffer containing 4% DMSO. The reaction is incubated at 37° C. for 30 min, followed by overnight incubation at room temperature. Pure complex is isolated by Size Exclusion Chromatography (SEC) purification. The reaction mixture is directly injected on a Superdex 75 column (CV 120 mL) pre-equilibrated with buffer containing 12.5 mM HEPES pH 7.4, 75 mM NaCl. […] To confirm the presence of PTP1BS187C lite and FKBP12 in the elution peak, samples are also assessed by SDS-PAGE. […]

T3 sequence (P18031 1-293 C32S/C92V/C121S/S187C limits assumed): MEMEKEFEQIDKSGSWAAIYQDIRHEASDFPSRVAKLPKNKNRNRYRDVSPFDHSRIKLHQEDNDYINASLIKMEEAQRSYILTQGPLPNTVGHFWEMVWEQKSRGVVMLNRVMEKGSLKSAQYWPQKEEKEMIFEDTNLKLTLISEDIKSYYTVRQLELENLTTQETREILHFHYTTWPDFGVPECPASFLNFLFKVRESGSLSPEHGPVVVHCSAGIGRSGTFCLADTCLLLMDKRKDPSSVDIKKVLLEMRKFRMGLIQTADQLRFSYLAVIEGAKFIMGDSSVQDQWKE
T3 sequence (P62942 whole entry, the tested form may be a part): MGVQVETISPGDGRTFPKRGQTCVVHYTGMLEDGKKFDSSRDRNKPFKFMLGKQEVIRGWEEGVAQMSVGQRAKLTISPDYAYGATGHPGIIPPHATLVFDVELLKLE
T1 sequence (P18031 1-293 C32S/C92V/C121S/S187C limits assumed): as the sequence (P18031 1-293 C32S/C92V/C121S/S187C limits assumed) above
T1 sequence (P62942 whole entry, the tested form may be a part): as the sequence (P62942 whole entry, the tested form may be a part) above
Sequence of MCL1S245C/FKBP52 (Q07820 172-327 S245C/C286S): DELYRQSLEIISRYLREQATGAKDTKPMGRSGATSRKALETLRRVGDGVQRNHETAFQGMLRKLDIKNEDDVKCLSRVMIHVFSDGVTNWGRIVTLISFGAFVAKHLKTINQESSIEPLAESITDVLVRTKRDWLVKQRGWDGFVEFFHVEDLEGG
Sequence of MCL1S245C/FKBP52 (Q02790 1-140): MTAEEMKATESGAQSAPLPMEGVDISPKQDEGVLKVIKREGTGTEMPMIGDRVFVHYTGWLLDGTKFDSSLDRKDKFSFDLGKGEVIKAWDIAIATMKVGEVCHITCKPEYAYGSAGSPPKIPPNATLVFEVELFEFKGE

For CCC(C)(C)C(=O)C(=O)N1CCCC[C@H]1C(=O)O[C@H](CCc1ccc(OC)c(OC)c1)c1cccc(NC(=O)CCSSc2ccccn2)c1 [Compound C3-SLF, (R)-3-(3,4-dimethoxyphenyl)-1-(3-(3-(pyridin-2-yldisulfanyl)propanamido)phenyl)propyl (S)-1-(3,3-dimethyl-2-oxopentanoyl)piperidine-2-carboxylate], the “Buried surface area of ligand” value (FKBP12-PTP1BS187C) was 615 Å^2, the “Ligand cross-linking efficiency in the presence of FKBP12, gel shift” value (KRASGTP/G12C [1]) was “boosted significantly” and the “% × link to KRAS” value (KRASGTP/G12C [2]; FKBP12 absent (−)) was 9.6%. The “% × link to KRAS” value (KRASGTP/G12C [2]; FKBP12 present (+) 10 μM) was 47.5%, the “Buried surface area of the complex contributed by ligand” value (MCL1S245C/FKBP52) was 606 Å2 and the “Formation of PTP1BS187C lite/C3-SLF/FKBP12 complex” value (PTP1BS187C lite/FKBP12) was “confirm the formation”.
